According to patent US11793746B2, “Intense skin hydration systems and methods” (priority 2020, dated 2023):

Columns and labels:
lysyl oxidase = assay: Lysyl oxidase activity in wound-margin biopsies after surgical and xylene injury; format: in vivo, nude mice
Experimental: The dermotrophic effect of GC-100 was also determined using lysyl oxidase levels as an endpoint to determine whether GC-100 can effect the concentration of lysyl oxidase in wounded tissues and to establish whether GC-100 can accelerate the wound healing process using qualitative measurements.
Nude mice were chosen because their skin (and their lack of hair) is more similar to human skin than are other commonly used laboratory test animals. The test population was divided into 4 groups of 10 nude mice for the purpose of examining the best application sequence for GC-100 relative to injury. Group definitions are as follows:
A surgical wound measuring 2.54 cm in length and penetrating the dermis was made on the right hind quarter of all test subjects after appropriate anesthesia was administered.
A second index of injury using 1% xylene was used in all test subjects after creation of the surgical wound. Using a sterile tuberculin syringe, 0.1 mL of a 1% xylene solution was injected subcutaneously into the region of the surgical wound. The final size of the injury measured 25×20 mm^2.
The mice in Groups II, III, and IV were divided randomly after physical and chemical injury into 2 subgroups of 5 mice each for application of either GC-100 0.5% or 1%. Pretreatment for Group II and IV mice was conducted one hour prior to any injury, where GC-100 0.5% and 1% was rubbed into the right hind quarter of the designated mice for 50 cycles using a nylon glove. Post-treatment for mice in Group III and IV with GC-100 0.5% and 1% was conducted immediately after injury.
Wound recovery was determined over 30 days using cutaneous punch biopsies that were taken on post injury day 4, and at the conclusion of weeks 2, 3, and 4 from the wound margins. Biopsy specimens were analyzed for lysyl oxidase activity using a standard assay. Results are shown in Table 3 and FIG. 6, which is a graph showing percent lysyl oxidase as a function of treatment schedule and GC-100 concentration.

[1] = system: ultraviolet-induced erythema; assay: Ultraviolet-induced erythema, erythema scale; format: in vivo; conditions: for Erythema score (mean ± SD): scale 0 none to 4 severe
Experimental: The anti-inflammatory activity of GC-100 was evaluated using ultraviolet-induced erythema as an endpoint.
Ultraviolet radiation generates a predictable, dose-dependent cutaneous response over time. The pathological mechanism includes injury to epidermal, dermal, and vascular constituents of the skin with a local inflammatory response mediated by proinflammatory cytokines and prostaglandins. It is the objective of this experiment to determine whether GC-100 can alleviate an ultraviolet-mediated inflammatory response by qualitative assessment
Erythema was quantified after 2, 4, 5, and 24 hours following irradiation using a standard erythema scale that has been shown historically to yield reproducible results.

photodamaged human skin = assay: Pilot open label study on photoaged skin: panelist questionnaire and side effects; format: in vivo
Experimental: A pilot open label study was conducted to establish the efficacy of GC-100 on photoaged skin in a clinical setting.
Primary endpoints for this study were as follows: • 1. Epidermal skin thickness was measured using high frequency ultrasound. • 2. Panelists regard for their overall appearance and any changes noted in the appearance of their wrinkles, lentigines, facial acne and pore size were used in qualitative analysis. In addition, panelists were asked to comment on irritation, novel rashes, and other side effects during the study period.
An open label, six week pilot study to examiner the regenerative effect of GC-100 was performed on 15 women with mild to moderate dermatoheliosis as defined by clinical examination. Exclusion criteria selected against patients with a history of retinoic acid use, dermabrasion, or chemical peel application within 6 months prior to study onset. However, all patients had used one or more of these products previously. After appropriate informed consent was obtained, baseline measurements of epidermal thickness using high frequency untrasonography (20 MHz and above) were collected using skin at the infraorbital prominence. Three measurements were taken at each site and averaged to yield a result. GC-100 was applied to the face and neck according to the following schedule: • Weekly: GC-100 applied in mask vehicle • Twice daily: GC-100 applied through lotion vehicle
The patient population was divided into two groups, where Group I was evaluated after 24 hours of product application, and Group II was evaluated at the conclusion of weeks 2, 4 and 6. A panelist questionnaire was completed during each evaluation session.

[2] = system: collagen I and collagen III; assay: Collagen deposition by light and electron microscopy; conditions: 20,000×; vs untreated control
Experimental: Skin tissue treated with GC-100 in the absence of ascorbic acid was prepared to illustrate collagen deposition. Tissue samples were first pretreated with Bouin's solution to intensify subsequent staining results. Samples were then treated with Mason's trichrome stain, which combines the plasma stain (chromotrope 2R) and connective tissue fiber stain)aniline blue) in a phosphotungstic acid solution to which glacial acetic acid was added. The collagen absorbs the tungsten ion, which may be visualized due to the complexed aniline blue.
Staining for specific collagen types was achieved using specific standardized indirect immunoperoxidase attains for collagen I and III, respectively.
Collagen deposition assessments are based on the visual interpretation of two endpoints: Collagen I and Collagen III. An untreated control and a tissue sample treated with GC-100 were stained to reveal collagen I. A similar method of comparison was used to illustrate collagen III deposition in control and treated tissue.
Tissues used for light microscopy were place in Karnovsky's fixative for additional evaluation using electron microscopy standard technique. Magnification power of 20,000× was used for visualization of the lower dermis.

Substance: H-Lys-Pro-NH2 [GC-100]
- % lysyl oxidase (lysyl oxidase; Group II pretreatment, 0.5% GC-100, Day 4): 1.4%
- % lysyl oxidase (lysyl oxidase; Group II pretreatment, 0.5% GC-100, Week 2): 10.2%
- % lysyl oxidase (lysyl oxidase; Group II pretreatment, 0.5% GC-100, Week 3): 13.4%
- % lysyl oxidase (lysyl oxidase; Group II pretreatment, 0.5% GC-100, Week 4): 45.9%
- % lysyl oxidase (lysyl oxidase; Group II pretreatment, 1% GC-100, Day 4): 5.2%
- % lysyl oxidase (lysyl oxidase; Group II pretreatment, 1% GC-100, Week 2): 18.2%
- % lysyl oxidase (lysyl oxidase; Group II pretreatment, 1% GC-100, Week 3): 23.4%
- % lysyl oxidase (lysyl oxidase; Group II pretreatment, 1% GC-100, Week 4): 45.9%
- % lysyl oxidase (lysyl oxidase; Group III post-treatment, 0.5% GC-100, Day 4): 1.2%
- % lysyl oxidase (lysyl oxidase; Group III post-treatment, 0.5% GC-100, Week 2): 3.2%
- % lysyl oxidase (lysyl oxidase; Group III post-treatment, 0.5% GC-100, Week 3): 19.8%
- % lysyl oxidase (lysyl oxidase; Group III post-treatment, 0.5% GC-100, Week 4): 48.7%
- % lysyl oxidase (lysyl oxidase; Group III post-treatment, 1% GC-100, Day 4): 5.3%
- % lysyl oxidase (lysyl oxidase; Group III post-treatment, 1% GC-100, Week 2): 11.5%
- % lysyl oxidase (lysyl oxidase; Group III post-treatment, 1% GC-100, Week 3): 19.7%
- % lysyl oxidase (lysyl oxidase; Group III post-treatment, 1% GC-100, Week 4): 49.6%
- % lysyl oxidase (lysyl oxidase; Group IV pre- & post-treatment, 0.5% GC-100, Day 4): 21%
- % lysyl oxidase (lysyl oxidase; Group IV pre- & post-treatment, 0.5% GC-100, Week 2): 30.1%
- % lysyl oxidase (lysyl oxidase; Group IV pre- & post-treatment, 0.5% GC-100, Week 3): 42.4%
- % lysyl oxidase (lysyl oxidase; Group IV pre- & post-treatment, 0.5% GC-100, Week 4): 52.8%
- % lysyl oxidase (lysyl oxidase; Group IV pre- & post-treatment, 1% GC-100, Day 4): 47.2%
- % lysyl oxidase (lysyl oxidase; Group IV pre- & post-treatment, 1% GC-100, Week 2): 50.5%
- % lysyl oxidase (lysyl oxidase; Group IV pre- & post-treatment, 1% GC-100, Week 3): 58.8%
- % lysyl oxidase (lysyl oxidase; Group IV pre- & post-treatment, 1% GC-100, Week 4): 62.7%
- % printed under erythema score (reduction vs control) ([1]; 0.1% GC-100, 2 hrs): 32%
- Erythema score (mean ± SD) ([1]; 0.1% GC-100, 2 hrs after irradiation): 1.89 ± 0.60
- % printed under erythema score (reduction vs control) ([1]; 0.1% GC-100, 4 hrs): 58.7%
- Erythema score (mean ± SD) ([1]; 0.1% GC-100, 4 hrs after irradiation): 1.56 ± 0.53
- % printed under erythema score (reduction vs control) ([1]; 0.1% GC-100, 5 hrs): 58.3%
- Erythema score (mean ± SD) ([1]; 0.1% GC-100, 5 hrs after irradiation): 1.67 ± 0.71
- % printed under erythema score (reduction vs control) ([1]; 0.1% GC-100, 24 hrs): 50%
- Erythema score (mean ± SD) ([1]; 0.1% GC-100, 24 hrs after irradiation): 1.00 ± 0.71
- effect on ultraviolet-induced erythema ([1]; 0.1%, 0.5%, 1% GC-100, greatest activity with 1%): ability to suppress ultraviolet-induced erythema
- % printed under erythema score (reduction vs control) ([1]; 0.5% GC-100, 2 hrs): 56.1%
- Erythema score (mean ± SD) ([1]; 0.5% GC-100, 2 hrs after irradiation): 1.22 ± 0.44
- % printed under erythema score (reduction vs control) ([1]; 0.5% GC-100, 4 hrs): 58.7%
- Erythema score (mean ± SD) ([1]; 0.5% GC-100, 4 hrs after irradiation): 1.56 ± 0.53
- % printed under erythema score (reduction vs control) ([1]; 0.5% GC-100, 5 hrs): 58.7%
- Erythema score (mean ± SD) ([1]; 0.5% GC-100, 5 hrs after irradiation): 1.56 ± 0.53
- % printed under erythema score (reduction vs control) ([1]; 0.5% GC-100, 24 hrs): 55.5%
- Erythema score (mean ± SD) ([1]; 0.5% GC-100, 24 hrs after irradiation): 0.89 ± 0.33
- % printed under erythema score (reduction vs control) ([1]; 1.0% GC-100, 2 hrs): 64%
- Erythema score (mean ± SD) ([1]; 1.0% GC-100, 2 hrs after irradiation): 1.00
- % printed under erythema score (reduction vs control) ([1]; 1.0% GC-100, 4 hrs): 67%
- Erythema score (mean ± SD) ([1]; 1.0% GC-100, 4 hrs after irradiation): 1.22 ± 0.44
- % printed under erythema score (reduction vs control) ([1]; 1.0% GC-100, 5 hrs): 66.81%
- Erythema score (mean ± SD) ([1]; 1.0% GC-100, 5 hrs after irradiation): 1.33 ± 0.50
- % printed under erythema score (reduction vs control) ([1]; 1.0% GC-100, 24 hrs): 83.5%
- Erythema score (mean ± SD) ([1]; 1.0% GC-100, 24 hrs after irradiation): 0.33 ± 0.50
- Incidence of side effects (photodamaged human skin; panelist questionnaire): 0%
- Positive response: Decreased appearance of lentigines (photodamaged human skin; panelist questionnaire): 54%
- Positive response: Decreased appearance of pores (photodamaged human skin; panelist questionnaire): 92%
- Positive response: Decreased appearance of wrinkles (photodamaged human skin; panelist questionnaire): 62%
- Positive response: Decreased incidence of blemishes (photodamaged human skin; panelist questionnaire): 92%
- Positive response: Improved overall cosmetic appearance (photodamaged human skin; panelist questionnaire): 92%
- clinical irritation during the study (photodamaged human skin; six week study, face and neck): No clinically detectable irritation
- collagen fibers in lower dermis, electron microscopy [2]: collagen fiber density is increased
